Results taken from PubChem BioAssay (NCI).
Values joined by “and” are separate entries in the source; they are usually repeats but may differ in a detail not shown here. Equal values may be shown once.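 Each compound was tested at five concentrations against cells in 96-well plates for 48 hours. The concentration for 50% growth inhibition is given as GI50. TGI: total growth inhibition.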

Columns and labels:
Assay in all cases: NCI-60 cell line screen, 48 h
TK-10 renal = system: TK-10 renal
PC-3 prostate = system: PC-3 prostate
EKVX NSCLC = system: EKVX NSCLC
CAKI-1 renal = system: CAKI-1 renal
DU-145 prostate = system: DU-145 prostate
HT29 colon = system: HT29 colon
HOP-62 NSCLC = system: HOP-62 NSCLC
KM12 colon = system: KM12 colon
NCI-H226 lung = system: NCI-H226 lung
BT-549 breast = system: BT-549 breast

O=C(Nc1ccc(Oc2ccc(NC(=O)Nc3ccc([N+](=O)[O-])cc3)cc2)cc1)Nc1ccc([N+](=O)[O-])cc1
GI50 (TK-10 renal): 2.11 µM | TGI (TK-10 renal): > 26.7 µM | GI50 (PC-3 prostate): 1.04 µM | TGI (PC-3 prostate): > 22.8 µM | GI50 (EKVX NSCLC): 2.32 µM | TGI (EKVX NSCLC): > 30.9 µM | GI50 (CAKI-1 renal): 2.34 µM | TGI (CAKI-1 renal): 7.55 µM | GI50 (DU-145 prostate): 2.44 µM | TGI (DU-145 prostate): > 100 µM | GI50 (HT29 colon): 2 µM | TGI (HT29 colon): 15.9 µM | GI50 (HOP-62 NSCLC): 2.64 µM | TGI (HOP-62 NSCLC): 7.96 µM | GI50 (KM12 colon): 1.53 µM | TGI (KM12 colon): > 29.7 µM | GI50 (NCI-H226 lung): 2.9 µM | TGI (NCI-H226 lung): 27.8 µM | GI50 (BT-549 breast): 2.06 µM | TGI (BT-549 breast): 7.36 µM

CC(C)=CC(=O)N[C@@H]1CC2CCC3C(CC[C@@]4(C)C3CC[C@@H]4C(C)N(C)C)[C@@]2(C)C[C@@H]1O (stereo partly specified)
GI50 (TK-10 renal): 14.1 µM | TGI (TK-10 renal): 32.3 µM | GI50 (PC-3 prostate): 3.73 µM | TGI (PC-3 prostate): 32.7 µM | GI50 (EKVX NSCLC): 3.12 µM | TGI (EKVX NSCLC): > 100 µM | GI50 (CAKI-1 renal): 5.96 µM | TGI (CAKI-1 renal): 23.9 µM | GI50 (DU-145 prostate): 10.7 µM | TGI (DU-145 prostate): > 100 µM | GI50 (HT29 colon): 0.496 µM | TGI (HT29 colon): 2.92 µM | GI50 (HOP-62 NSCLC): 4.3 µM | TGI (HOP-62 NSCLC): 9.85 µM | GI50 (KM12 colon): 4.41 µM | TGI (KM12 colon): 30.1 µM | GI50 (NCI-H226 lung): 8.04 µM | TGI (NCI-H226 lung): > 41.4 µM | GI50 (BT-549 breast): 7.57 µM | TGI (BT-549 breast): 29.3 µM

CN(C)CC1CCCCCC(Br)C1=O (stereo unspecified)
TGI (TK-10 renal): 17.7 µM | TGI (PC-3 prostate): 43.6 µM | TGI (EKVX NSCLC): 30.8 µM | TGI (CAKI-1 renal): 16 µM | TGI (DU-145 prostate): 25 µM | TGI (HT29 colon): 50.3 µM | TGI (HOP-62 NSCLC): 47.3 µM | TGI (KM12 colon): 41 µM | TGI (NCI-H226 lung): > 53.9 µM | TGI (BT-549 breast): 26.4 µM

O=C(Cc1ccc(Nc2ccnc(C(F)(F)F)c2)cc1)Nc1cc(Cl)ccc1O
GI50 (TK-10 renal): 17.7 µM | TGI (TK-10 renal): 56 µM | GI50 (PC-3 prostate): 2.58 µM | TGI (PC-3 prostate): 12.4 µM | GI50 (EKVX NSCLC): 3.12 µM | TGI (EKVX NSCLC): 16.9 µM | GI50 (CAKI-1 renal): 13.7 µM | TGI (CAKI-1 renal): 43.7 µM | GI50 (DU-145 prostate): 9.27 µM | TGI (DU-145 prostate): 38.1 µM | GI50 (HT29 colon): 21.4 µM | TGI (HT29 colon): 53.5 µM | GI50 (HOP-62 NSCLC): 12.5 µM | TGI (HOP-62 NSCLC): 32.5 µM | GI50 (KM12 colon): 4.36 µM | TGI (KM12 colon): 16.9 µM | GI50 (NCI-H226 lung): 10.3 µM | TGI (NCI-H226 lung): 32.3 µM | GI50 (BT-549 breast): 4.07 µM | TGI (BT-549 breast): 22.5 µM

COc1cc2cnc(-c3ccccc3)cc2cc1OC
TGI (TK-10 renal): 67.2 µM | TGI (PC-3 prostate): 77.5 µM | TGI (EKVX NSCLC): 34.3 µM | TGI (CAKI-1 renal): 62.4 µM | TGI (DU-145 prostate): > 100 µM | TGI (HT29 colon): 45.5 µM | TGI (HOP-62 NSCLC): > 100 µM | TGI (KM12 colon): 61.2 µM | TGI (NCI-H226 lung): 45.8 µM | TGI (BT-549 breast): 68.6 µM

O=C(Oc1ccccc1Cl)c1ccccc1Nc1cccc(C(F)(F)F)c1
GI50 (TK-10 renal): 32.7 µM | TGI (TK-10 renal): 67.9 µM | GI50 (PC-3 prostate): 26 µM | TGI (PC-3 prostate): > 100 µM | GI50 (EKVX NSCLC): 33.1 µM | TGI (EKVX NSCLC): 79.6 µM | GI50 (CAKI-1 renal): 20.7 µM | TGI (CAKI-1 renal): 49 µM | GI50 (DU-145 prostate): 31.8 µM | TGI (DU-145 prostate): 89 µM | GI50 (HT29 colon): 30 µM | TGI (HT29 colon): > 100 µM | GI50 (HOP-62 NSCLC): 24.6 µM | TGI (HOP-62 NSCLC): 70.5 µM | GI50 (KM12 colon): 19.6 µM | TGI (KM12 colon): 44.6 µM | GI50 (NCI-H226 lung): 20.2 µM | TGI (NCI-H226 lung): 47.9 µM | GI50 (BT-549 breast): 18.3 µM | TGI (BT-549 breast): 52.6 µM

CC#CC#C/C=C1\C=CC2(OC=CC2OC(C)=O)O1 (stereo unspecified)
TGI (TK-10 renal): > 100 µM and 59.7 µM | TGI (PC-3 prostate): > 100 µM | TGI (EKVX NSCLC): > 100 µM | TGI (CAKI-1 renal): 31.2 µM | TGI (DU-145 prostate): 37.7 µM | TGI (HT29 colon): 34.8 µM and 55.9 µM | TGI (HOP-62 NSCLC): > 100 µM | TGI (KM12 colon): 63.7 µM and 54.8 µM | GI50 (NCI-H226 lung): > 100 µM and 11.1 µM | TGI (NCI-H226 lung): > 100 µM and 23.4 µM | TGI (BT-549 breast): > 100 µM

CC[C@H](C)[C@H](NC(=O)NC(C)(C)C)C(=O)N(C)[C@H](C[C@@H](OC(C)=O)c1nc(C(=O)N[C@@H](Cc2ccccc2)C[C@H](C)C(=O)OC)cs1)C(C)C
GI50 (TK-10 renal): 0.963 µM | TGI (TK-10 renal): > 25 µM | GI50 (PC-3 prostate): 0.924 µM | TGI (PC-3 prostate): > 25 µM | GI50 (EKVX NSCLC): 1.24 µM | TGI (EKVX NSCLC): > 25 µM | GI50 (CAKI-1 renal): 1.12 µM | TGI (CAKI-1 renal): > 25 µM | GI50 (DU-145 prostate): 0.648 µM | TGI (DU-145 prostate): > 6.3 µM | GI50 (HT29 colon): 0.324 µM | TGI (HT29 colon): > 8.91 µM | GI50 (HOP-62 NSCLC): 0.846 µM | TGI (HOP-62 NSCLC): > 25 µM | GI50 (KM12 colon): 0.682 µM | TGI (KM12 colon): > 25 µM | GI50 (NCI-H226 lung): 1.95 µM | TGI (NCI-H226 lung): > 25 µM | GI50 (BT-549 breast): 0.241 µM | TGI (BT-549 breast): 1.52 µM

Nc1nccc2c1ccn2-c1cccc(NC(=O)c2ccc(N3CCOCC3)c(C(F)(F)F)c2)c1
GI50 (TK-10 renal): 1.56 µM | TGI (TK-10 renal): 17.3 µM | GI50 (PC-3 prostate): 0.565 µM | TGI (PC-3 prostate): 15 µM | GI50 (EKVX NSCLC): 1.99 µM | TGI (EKVX NSCLC): > 50 µM | GI50 (CAKI-1 renal): 0.531 µM | TGI (CAKI-1 renal): > 19 µM | GI50 (DU-145 prostate): 1.22 µM | TGI (DU-145 prostate): 4.15 µM | GI50 (HT29 colon): 0.32 µM | TGI (HT29 colon): 1.45 µM | GI50 (HOP-62 NSCLC): 1.27 µM | TGI (HOP-62 NSCLC): > 25.8 µM | GI50 (KM12 colon): 0.313 µM | TGI (KM12 colon): 2.73 µM | GI50 (NCI-H226 lung): 1.74 µM | TGI (NCI-H226 lung): 18.1 µM | GI50 (BT-549 breast): 1.04 µM | TGI (BT-549 breast): 5.5 µM

CCOC(=O)Cn1c(-c2nonc2NC(=O)c2ccccc2F)nc2ccccc21
GI50 (TK-10 renal): 19.2 µM | TGI (TK-10 renal): > 82.7 µM | GI50 (PC-3 prostate): 3.16 µM | TGI (PC-3 prostate): > 82.1 µM | GI50 (EKVX NSCLC): 28 µM | TGI (EKVX NSCLC): > 100 µM | GI50 (CAKI-1 renal): 2.33 µM | TGI (CAKI-1 renal): > 100 µM | GI50 (DU-145 prostate): 4.96 µM | TGI (DU-145 prostate): > 100 µM | GI50 (HT29 colon): 0.721 µM | TGI (HT29 colon): > 100 µM | GI50 (HOP-62 NSCLC): 10.8 µM | TGI (HOP-62 NSCLC): 47.7 µM | GI50 (KM12 colon): 1.93 µM | TGI (KM12 colon): > 100 µM | GI50 (NCI-H226 lung): 19.5 µM | TGI (NCI-H226 lung): > 100 µM | GI50 (BT-549 breast): 5.91 µM | TGI (BT-549 breast): > 93.7 µM
